Results: paper PMC5854716, “Synthesis, molecular docking, ctDNA interaction, DFT calculation and evaluation of antiproliferative and anti-Toxoplasma gondii activities of 2,4-diaminotriazine-thiazole derivatives” (Medicinal Chemistry Research, 2018)
In brackets after ≈: the same amount, converted by molar mass.

Experiments:
[1] = tested on: human breast carcinoma MCF-7 cells; assay: In vitro antiproliferative assay (SRB), MCF-7; assay type: cell-based; conditions: 72 h exposure, mean ± SD
Experimental: (§1) Biphenotypic B myelomonocytic leukemia MV4-11, human lung carcinoma A549, human breast carcinoma MCF-7, and normal mouse fibroblast BALB/3T3 cells were obtained from American Type Culture Collection (Rockville, Maryland, USA). All the cell lines are being maintained at the Institute of Immunology and Experimental Therapy, Wroclaw, Poland. MV4-11 cells were cultured in RPMI 1640 medium (Gibco, UK) with 2 mM L-glutamine adjusted to contain 1.0 mM sodium pyruvate, and 10% fetal bovine serum (FBS) (all from Sigma-Aldrich, Germany). A549 cells were cultured in RPMI 1640+ Opti-MEM (1:1) (both from Gibco, UK), MCF-7 cells in Eagle medium (IIET, Wroclaw, Poland), BALB/3T3 in Dulbecco medium (IIET, Poland) supplemented with 2 mM L-glutamine and 1.0 mM sodium pyruvate, 10% fetal bovine serum (all from Sigma-Aldrich, Germany). The MCF-7 cell culture was supplemented with 0.8 mg/l of insulin (Sigma-Aldrich, Germany). All culture media were supplemented with 100 units/ml penicillin, and 100 µg/ml streptomycin (both from Polfa Tarchomin S.A., Poland). All cell lines were grown at 37 °C with 5% CO2 humidified atmosphere (Łączkowski et al. [2014], [2016a]). Prior to usage, the compounds were dissolved in DMSO and culture medium (1: 9) to the concentration of 1 mg/ml, and subsequently diluted in culture medium to reach the required concentrations (0.1, 1, 10, and 100 µg/ml) (Łączkowski et al. [2014], [2016a]). Twenty-four hours prior to the addition of the tested compounds, the cells counted using Burker hemocytometer were plated in 96-well plates (Sarstedt, Germany) at a density of 1 × 10^4 cells per well. The assay was performed after 72 h of exposure to varying concentrations of the tested agents. The in vitro cytotoxic effect of all agents was examined using the SRB assay for adherent cells (A549, MCF-7, and BALB/3T3) or MTT assay for leukemia cells (MV4-11) as described previously. […] Each compound in each concentration was tested in triplicate in a single experiment, which was repeated 3–7 times (Rubinstein et al. [1990]; Bramson et al. [1995]). Cells were attached to the bottom of plastic wells by fixing them with cold 50% TCA (trichloroacetic acid, POCH, Gliwice, Poland) on top of the culture medium in each well. The plates were incubated at 4 °C for 1 h and then washed five times with tap water. The cellular material fixed with TCA was stained with 0.1% sulforhodamine B (SRB, Sigma-Aldrich, Germany) and dissolved in 1% acetic acid (POCH, Gliwice, Poland) for 30 min. Unbound dye was removed by rinsing (4×) in 1% acetic acid. The protein-bound dye was extracted with 10 mM unbuffered Tris base (Sigma-Aldrich, Germany) for determination of the optical density (λ = 540 nm) in a computer-interfaced, 96-well Synergy H4 (BioTek Instruments USA) photometer microtiter plate reader (Sidoryk et al. [2012]).

[2] = tested on: normal mouse fibroblast Balb/3T3 cells; assay: In vitro cytotoxicity (SRB), Balb/3T3; assay type: cell-based; conditions: 72 h exposure, mean ± SD
Experimental: as §1

[3] = tested on: biphenotypic B myelomonocytic leukemia MV4-11 cells; assay: In vitro antiproliferative assay (MTT), MV4-11; assay type: cell-based, human; conditions: 72 h exposure, mean ± SD
Experimental: Biphenotypic B myelomonocytic leukemia MV4-11, human lung carcinoma A549, human breast carcinoma MCF-7, and normal mouse fibroblast BALB/3T3 cells were obtained from American Type Culture Collection (Rockville, Maryland, USA). All the cell lines are being maintained at the Institute of Immunology and Experimental Therapy, Wroclaw, Poland. MV4-11 cells were cultured in RPMI 1640 medium (Gibco, UK) with 2 mM L-glutamine adjusted to contain 1.0 mM sodium pyruvate, and 10% fetal bovine serum (FBS) (all from Sigma-Aldrich, Germany). A549 cells were cultured in RPMI 1640+ Opti-MEM (1:1) (both from Gibco, UK), MCF-7 cells in Eagle medium (IIET, Wroclaw, Poland), BALB/3T3 in Dulbecco medium (IIET, Poland) supplemented with 2 mM L-glutamine and 1.0 mM sodium pyruvate, 10% fetal bovine serum (all from Sigma-Aldrich, Germany). The MCF-7 cell culture was supplemented with 0.8 mg/l of insulin (Sigma-Aldrich, Germany). All culture media were supplemented with 100 units/ml penicillin, and 100 µg/ml streptomycin (both from Polfa Tarchomin S.A., Poland). All cell lines were grown at 37 °C with 5% CO2 humidified atmosphere (Łączkowski et al. [2014], [2016a]).
Prior to usage, the compounds were dissolved in DMSO and culture medium (1: 9) to the concentration of 1 mg/ml, and subsequently diluted in culture medium to reach the required concentrations (0.1, 1, 10, and 100 µg/ml) (Łączkowski et al. [2014], [2016a]).
Twenty-four hours prior to the addition of the tested compounds, the cells counted using Burker hemocytometer were plated in 96-well plates (Sarstedt, Germany) at a density of 1 × 10^4 cells per well. The assay was performed after 72 h of exposure to varying concentrations of the tested agents. The in vitro cytotoxic effect of all agents was examined using the SRB assay for adherent cells (A549, MCF-7, and BALB/3T3) or MTT assay for leukemia cells (MV4-11) as described previously. The results were calculated as an inhibitory concentration 50 (IC50)—the concentration of tested agent which inhibits proliferation of 50% of the cancer cell population. Each compound in each concentration was tested in triplicate in a single experiment, which was repeated 3–7 times (Rubinstein et al. [1990]; Bramson et al. [1995]).
Twenty microliter of MTT solution (MTT: 3-(4,5-dimethylthiazol-2-yl)-2,5-diphenyltetrazolium bromide, stock solution: 5 mg/ml) was added to each well and incubated for 4 h. After the incubation time was complete, 80 µl of the lysis mixture was added to each well (lysis mixture: 225 ml dimethylformamide, 67.5 g sodium dodecyl sulfate and 275 ml of distilled water). The optical densities of the samples were read after 24 h on a Synergy H4 (BioTek Instruments USA) photometer microtiter plate reader at 570 nm (Sidoryk et al. [2012]). All of chemicals were obtained from Sigma-Aldrich, Germany.

[4] = tested on: human lung carcinoma A549 cells; assay: In vitro antiproliferative assay (SRB), A549; assay type: cell-based; conditions: 72 h exposure, mean ± SD
Experimental: as §1

[5] = tested on: Toxoplasma gondii BK strain; assay: T. gondii tachyzoite intracellular proliferation in VERO host cells ([3H]uracil incorporation); assay type: cell-based; conditions: Toxoplasma gondii
Experimental: The epithelial cell line VERO (ATCC-Catalog No. CCL-81^TM), derived from the kidney of the African green monkey, Cercopithecus aethiops and fibroblast cell line L-929 (ATCC-Catalog No. CCL-1^TM), derived from Mus musculus (http://www.atcc.org) were grown in Iscoves’s Modified Dulbecco’s Medium (IMDM) supplemented with 10% (v/v) fetal bovine serum (FBS), plus 2 mM L-glutamine, 100 U/ml penicillin, 100.00 µg/ml streptomycin, 5 × 10^−5 M 2-mercaptoethanol and maintained at 37 °C in a 10% CO2 atmosphere. Subcultures were performed via enzymatic cell dissociation in 0.25% trypsin. After dissociation, the cells were placed in culture medium at 4 °C with 10% FBS to inhibit the action of trypsin. The isolated cells were centrifuged for 10 min at 1000×g at 4 °C, and the cells were grown in new bottles. This procedure was repeated when cells reached a confluence of ~90%. All commercial reactants and solvents were purchased from either Sigma-Aldrich Laborchemikalien GmbH (Dzitko et al. [2014]).
Suspensions of the compounds 4a–l were freshly prepared (5 mg/ml DMSO) before the cells were exposed, and diluted to appropriate concentrations; 0.9, 1.8, 3.9, 7.8, 15.6, 31.2, 62.5, and 125.00 μg/ml with the culture medium. Cells treated with 2.5% DMSO-solvent served as a control in each experiment.
Stock solutions of the Sulfadiazine (100 mg/ml 1 N NaOH; Catalog No. S8626) was freshly prepared before each experiment, and diluted to appropriate concentrations: 5.00, 25.00, 50.00, 125.00, 250.00, 500.00, 1250.00, and 2500.00 μg/ml, respectively in IMDM complete medium. All commercial reactants and solvents were purchased from either Sigma-Aldrich Laborchemikalien GmbH.
Tachyzoites of T. gondii, BK strain, were maintained in female C57BL/6 (H-2^b) and BALB/c (H-2^d) mice (with genetically determined high and low susceptibility, respectively to Toxoplasma infection) via serial intraperitoneal inoculation of 10^5–10^6 parasites per mouse in phosphate-buffered saline (PBS). After 48 to 96 h, parasites were harvested via peritoneal lavage using PBS, pH 7.2, and centrifuged at 200×g for 5 min to remove blood cells and cell debris. The supernatant containing tachyzoites was collected and centrifuged again at 2000×g for 15 min. The final pellet was resuspended in IMDM, quantified in a Burker’s chamber, and used in experimental assays. Inbred mice were kept under standard laboratory conventional conditions. All experimental procedures were conducted according to guidelines of the 9. Local Ethics Commission for Experiments on Animals in Lodz.
VERO, (2 × 10^4 cells/100 µl/well) were grown in complete medium (IMDM) on 96-well plates. After 24 h incubation, a medium was removed and then T. gondii […] tachyzoites, suspended in culture medium supplemented with 0.9–125.00 μg/ml diaminotriazines 4a–l and as a control-sulfadiazine (5.0–2500.0 μg/ml), were added (2 × 10^5 tachyzoites/200 µl/well) to the cell monolayers. After subsequent 48 h incubation 1 µCi/well of [^3H] uracil (Moravek Biochemicals Inc., Brea, CA, USA) was applied to each microculture for further 18–20 h. The amount of the isotope incorporated into the parasite nucleic acid pool, corresponding to the parasite growth, was measured by liquid scintillation counting with 1450 Microbeta Plus Liquid Scintillation Counter (Wallac Oy, Turku, Finland). The cpms of host cells alone (below 250/microculture) were subtracted from cpms of T. gondii infected microcultures (Dzitko et al. [2014]).

Row | Compound | IC50 MCF-7 [1] [µg/mL] | IC50 Balb/3T3 [2] [µg/mL] | IC50 MV4-11 [3] [µg/mL] | IC50 A549 [4] [µg/mL] | activity at 5 µg/mL ([5]; 5.00 µg/ml, VERO host cells) [%] | activity at 25 µg/mL ([5]; 25.00 µg/ml, VERO host cells) [%] | activity at 50 µg/mL ([5]; 50.00 µg/ml, VERO host cells) [%] | activity at 125 µg/mL ([5]; 125.00 µg/ml, VERO host cells (Table 3)) [%] | activity at 250 µg/mL ([5]; 250.00 µg/ml, VERO host cells) [%] | activity at 500 µg/mL ([5]; 500.00 µg/ml, VERO host cells) [%] | activity at 1250 µg/mL ([5]; 1250.00 µg/ml, VERO host cells) [%] | activity at 2500 µg/mL ([5]; 2500.00 µg/ml, VERO host cells) [%] | IC50 ([5]; VERO host cells, GraphPad Prism curves, read-out: IC50 (50% inhibition of T. gondii proliferation in vitro)) [µg/mL]
1 | N.N.[Cl][Pt][Cl] [cis-platin, reference compound] | 2.33 ± 0.465 | 2.55 ± 0.588 | 0.22 ± 0.11 | 2.69 ± 1.119 | – | – | – | – | – | – | – | – | –
2 | Nc1ccc(S(=O)(=O)Nc2ncccn2)cc1 [Sulfadiazine, reference compound] | – | – | – | – | 92 | 80.5 | 70.7 | 55.2 | 52.8 | 41.6 | 39.7 | 39.6 | 1020 (≈ 4.09 mM)
